The test system of data set [1] is human embryonic kidney (HEK293T) cells. The data set can be described thus: In vitro cytotoxicity assay (MTT). It counts as cell-based. The protocol: (§1) In vitro cytotoxicity was determined against human embryonic kidney (HEK293T) cells. The assay was performed in 96-well treated tissue culture plates. Cells were seeded in the wells (5000 cells in 100 µL media containing RPMI1640, FBS, penicillin and streptomycin) and incubated for 24 h. Samples were then added and plates were again incubated for 48 h. MTT was then added and the plates were incubated for 4 h at 37 °C. Formazan crystals formed were dissolved in EtOH and absorbances were read at λ = 595 nm. The result was analyzed by using Prism 9 software (Graphpad, San Diego, CA, USA) to obtain IC50 values.

The subject of data set [2] is Staphylococcus aureus ATCC 6538. The data set can be described thus: Agar-plate diffusion assay, S. aureus. It counts as cell-based. The settings on record: for Antibacterial Activity Gram-Positive S. aureus Clear Inhibition Zone: at the MID, disk diameter 6 mm; for Antibacterial Activity Gram-Positive S. aureus MID: minimum dose that induced an obvious inhibition zone (1–1.5 mm), 6 mm disk. The protocol: (§2) Staphylococcus aureus ATCC 6538 and Klebsiella pneumoniae were used for biological evaluation. Concentrations assayed ranged from 0.08 to 1.25 µg/disks. DMSO was used to dissolve the compounds, while vancomycin and oxacillin were used as positive controls for Staphylococcus aureus and gentamycin was used as a positive control for Klebsiella pneumoniae. The minimum inhibitory dose (MID, μg/disk) was defined as the minimum dose that induced an obvious inhibition zone (1–1.5 mm). The disk diameter was 6 mm.

Data set [3] relates to Klebsiella pneumoniae. The data set can be described thus: Agar-plate diffusion assay, K. pneumoniae. It counts as cell-based. The settings on record: for Antibacterial Activity Gram-Negative K. pneumoniae Clear Inhibition Zone: at the MID, disk diameter 6 mm; for Antibacterial Activity Gram-Negative K. pneumoniae MID: minimum dose that induced an obvious inhibition zone (1–1.5 mm), 6 mm disk. On the procedure: as §2

Data set [4] in a line: In vitro cytotoxicity assay (MTT). The settings on record: human. Format: cell-based, human. On the procedure:
as §1

Data set [5] relates to Bsc-1 cells. Details: method as in PMID 27399938. To be noted: cited from earlier work.
The subject of data set [6] is Enterococcus faecium. Also on record: method as in PMID 27399938. To be noted: cited from earlier work.
Data set [7] relates to Staphylococcus aureus. Details: method as in PMID 27399938. To be noted: cited from earlier work.
In data set [8] the test system is Candida albicans. Also on record: method as in PMID 27399938. The settings on record: cited from earlier work.
The test system of data set [9] is Escherichia coli. Also on record: method as in PMID 27399938. To be noted: cited from earlier work.
For data set [10], the system named is Pseudomonas aeruginosa. Details: method as in PMID 27399938. To be noted: cited from earlier work.
The mark [11] stands for this setting: Homo sapiens, HEK-293T, HEK293T cells, methylation and acetylation products, read-out: IC50 against HEK293T.
[12] abbreviates: HEK293T cells, MTT, 48 h, read-out: Cytotoxicity HEK293T IC50.

Values after ≈ are worked out from the molar mass of the structure shown. Like-named read-outs stand apart in the source and are kept apart here.

For `CC(=O)Oc1c(Br)c(Br)c(Br)c(Br)c1Oc1cc(Br)cc(Br)c1O` [Compound 10, 2,3,4,5-tetrabromo-6-(3′,5′-dibromo-2′-hydroxyphenoxy) phenyl acetate], the IC50 in data set [1] (setting [11]) is > 10 µg/mL.

Turning to `CC(=O)Oc1c(Br)c(Br)cc(Br)c1Oc1cc(Br)cc(Br)c1O` [Compound 12, 2,3,5-tribromo-6-(3′, 5′-dibromo-2′-hydroxyphenoxy) phenyl acetate], the IC50 in data set [1] (setting [11]) was > 10 µg/mL.

For Gentamycin, in data set [2], the “Antibacterial Activity Gram-Positive S. aureus Clear Inhibition Zone” value stood at 7.67 ± 0.47 mm and the “Antibacterial Activity Gram-Positive S. aureus MID” value is on record as 0.078 µg/Disk. Besides, in data set [3], the “Antibacterial Activity Gram-Negative K. pneumoniae Clear Inhibition Zone” value is given as 7.33 ± 0.47 mm and the “Antibacterial Activity Gram-Negative K. pneumoniae MID” value was 0.078 µg/Disk.

For the molecule `Cc1onc(-c2ccccc2)c1C(=O)N[C@@H]1C(=O)N2[C@@H]1SC(C)(C)[C@@H]2C(=O)O` [Oxacillin], in data set [2], the “Antibacterial Activity Gram-Positive S. aureus Clear Inhibition Zone” value stood at 11.33 ± 0.24 mm and the “Antibacterial Activity Gram-Positive S. aureus MID” value is given as < 0.078 µg/Disk. Further, in data set [3], the “Antibacterial Activity Gram-Negative K. pneumoniae Clear Inhibition Zone” value is recorded as 7.33 ± 0.24 mm and the “Antibacterial Activity Gram-Negative K. pneumoniae MID” value is given as 0.078 µg/Disk.

Consider `COc1c(Br)cc(Br)cc1Oc1c(Br)cc(Br)c(Br)c1OC` [Compound 9, 2,3,5-tribromo-6-(3′,5′-dibromo-2′-methoxyphenoxy) anisole], for which the IC50 in data set [1] (setting [11]) is > 10 µg/mL.

As to `Oc1ccccc1Oc1ccccc1O` [Compound 30, 2, 2′-oxydiphenol, reference compound], the IC50 at 48 h in data set [4] (setting [12]) is > 198 µM.

`Oc1cc(Br)cc(Br)c1Oc1cc(Br)cc(Br)c1O` [Compound 16, 3,5-dibromo-6-(3′, 5′-dibromo-2′-hydroxyphenoxy) phenol]: the “IC50 against Bsc-1 cells” value in data set [5] is listed as > 50 µg/mL. In [2], the “Antibacterial Activity Gram-Positive S. aureus Clear Inhibition Zone” value is listed as 7.00 ± 0.00 mm and the “Antibacterial Activity Gram-Positive S. aureus MID” value is 0.078 µg/Disk. In [6], the “MIC Enterococcus faecium” value is 1.6 to 3.1 µg/mL. Further, the “MIC Staphylococcus aureus” value in data set [7] is 1.25 to 1.6 µg/mL. Moreover, the “MIC Candida albicans” value in data set [8] was > 50 µg/mL. Besides, in [3], the “Antibacterial Activity Gram-Negative K. pneumoniae Clear Inhibition Zone” value was 7.50 ± 0.00 mm and the “Antibacterial Activity Gram-Negative K. pneumoniae MID” value was 0.078 µg/Disk. Besides, the “MIC Escherichia coli” value in data set [9] was 50 µg/mL (≈ 96.6 µM). Further, in [10], the “MIC Pseudomonas aeruginosa” value is recorded as > 50 µg/mL. Further, in data set [1] (human, 48 h), the IC50 was 8.11 µM. Besides, in data set [4] (Cytotoxicity HEK293T IC50), the IC50 at 48 h was 8.65 ± 1.11 µM.

`CC(=O)Oc1c(Br)cc(Br)cc1Oc1c(Br)cc(Br)c(Br)c1OC(C)=O` [Compound 13, 2,3,5-tribromo-6-(3′,5′-dibromo-2′-acetoxyphenoxy) phenyl acetate]: the IC50 in [1] (setting [11]) was > 10 µg/mL.

On to `COc1c(Br)cc(Br)cc1Oc1c(Br)c(Br)c(Br)c(Br)c1OC` [Compound 8, 2,3,4,5-tetrabromo-6-(3′,5′-dibromo-2′-methoxyphenoxy) anisole], for which the IC50 in data set [1] (setting [11]) is > 10 µg/mL.

Take `CC(=O)Oc1c(Br)cc(Br)cc1Oc1c(Br)c(Br)c(Br)c(Br)c1OC(C)=O` [Compound 11, 2,3,4,5-tetrabromo-6-(3′,5′-dibromo-2′-acetoxyphenoxy) phenyl acetate]: the IC50 in [1] (setting [11]) was > 10 µg/mL.

As for `COc1cccc2c1C(=O)c1c(O)c3c(c(O)c1C2=O)C[C@@](O)(C(=O)CO)C[C@@H]3O[C@H]1C[C@H](N)[C@H](O)[C@H](C)O1` [Doxorubicin, reference compound], the IC50 at 48 h in data set [4] (setting [12]) amounted to 0.22 ± 0.09 µM.

In the case of `COc1c(Br)c(Br)c(Br)c(Br)c1Oc1cc(Br)cc(Br)c1O` [Compound 7], the IC50 in data set [1] (setting [11]) is > 10 µg/mL.

As to `Oc1c(Br)cc(Br)cc1Oc1c(O)c(Br)c(Br)c(Br)c1Br` [Compound 1, 2,3,4,5-tetrabromo-6-(3′, 5′-dibromo-2′-hydroxyphenoxy) phenol], in data set [2], the “Antibacterial Activity Gram-Positive S. aureus Clear Inhibition Zone” value is listed as 7.17 ± 0.24 mm and the “Antibacterial Activity Gram-Positive S. aureus MID” value turned out to be 0.078 µg/Disk. In data set [3], the “Antibacterial Activity Gram-Negative K. pneumoniae Clear Inhibition Zone” value was found to be 7.00 ± 0.00 mm and the “Antibacterial Activity Gram-Negative K. pneumoniae MID” value is on record as 0.078 µg/Disk. This molecule also had a half-maximal inhibitory concentration (IC50) at 48 h in data set [4] (Cytotoxicity HEK293T IC50) of 16.2 ± 1.17 µM.

Take `CN[C@H](CC(C)C)C(=O)N[C@H]1C(=O)N[C@@H](CC(N)=O)C(=O)N[C@H]2C(=O)N[C@H]3C(=O)N[C@H](C(=O)N[C@H](C(=O)O)c4cc(O)cc(O)c4-c4cc3ccc4O)[C@H](O)c3ccc(c(Cl)c3)Oc3cc2cc(c3O[C@@H]2O[C@H](CO)[C@@H](O)[C@H](O)[C@H]2O[C@H]2C[C@](C)(N)[C@H](O)[C@H](C)O2)Oc2ccc(cc2Cl)[C@H]1O` [Vancomycin]: in [2], the “Antibacterial Activity Gram-Positive S. aureus Clear Inhibition Zone” value was 7.00 ± 0.00 mm and the “Antibacterial Activity Gram-Positive S. aureus MID” value came to 0.078 µg/Disk. For the same molecule, in data set [3], the “Antibacterial Activity Gram-Negative K. pneumoniae Clear Inhibition Zone” value turned out to be 7.33 ± 0.24 mm and the “Antibacterial Activity Gram-Negative K. pneumoniae MID” value amounted to 0.078 µg/Disk.

Broadly, the IC50 is the point on the concentration scale where inhibition reaches its midpoint.

The values above are taken from PMC8588277, “Oxy-Polybrominated Diphenyl Ethers from the Indonesian Marine Sponge, Lamellodysidea herbacea: X-ray, SAR, and Computational Studies” (Molecules, 2021).
